Laboratory results: ChEMBL document CHEMBL3885881, “DrugMatrix”

Organism: Rattus norvegicus
Experiment: DrugMatrix - Regimen: Daily Repeat
Format: toxicity, organism-based, Sprague-Dawley
Parameters: regimen Daily Repeat, gender Male, age 6-8 weeks
Conditions: in vivo, 0 mg/kg, dose level Control
[1] = po, 72 h, tissue Blood, route oral GAVAGE, time 3 day, vehicle 100 % WATER
[2] = po, 72 h, tissue Plasma, route oral GAVAGE, time 3 day, vehicle 100 % WATER
[3] = po, 120 h, tissue Blood, route oral GAVAGE, time 5 day, vehicle 100 % WATER
[4] = po, 120 h, tissue Plasma, route oral GAVAGE, time 5 day, vehicle 100 % WATER
[5] = iv, 72 h, tissue Blood, time 3 day, vehicle 100 % SALINE
[6] = iv, 72 h, tissue Plasma, time 3 day, vehicle 100 % SALINE
[7] = iv, 120 h, tissue Blood, time 5 day, vehicle 100 % SALINE
[8] = iv, 120 h, tissue Plasma, time 5 day, vehicle 100 % SALINE

CADMIUM ACETATE
ABSOLUTE BASOPHIL [1]: 0 CELLS/uL | ABSOLUTE EOSINOPHIL [1]: 0 CELLS/uL | ABSOLUTE LYMPHOCYTE [1]: 10386.33 CELLS/uL | ABSOLUTE MONOCYTE [1]: 88.5 CELLS/uL | ABSOLUTE SEGMENTED NEUTROPHIL [1]: 1008.5 CELLS/uL | BASOPHIL [1]: 0% | EOSINOPHIL [1]: 0% | ERYTHROCYTE COUNT [1]: 5.16 x10E6/uL | HEMATOCRIT [1]: 32.43% | HEMOGLOBIN [1]: 12.98 G/DL | LEUKOCYTE COUNT [1]: 11.48 x10E3/uL | LYMPHOCYTE [1]: 92.33% | MEAN CORPUSCULAR HEMOGLOBIN [1]: 25.23 pg | MEAN CORPUSCULAR HEMOGLOBIN CONCENTRATION [1]: 40.08 G/DL | MEAN CORPUSCULAR VOLUME [1]: 62.95 fL | MONOCYTE [1]: 0.67% | NEUTROPHIL [1]: 7% | NUCLEATED RED BLOOD CELLS [1]: 0 /100WBC | PLATELET COUNT [1]: 1016.67 x10E3/uL | ALANINE AMINOTRANSFERASE [2]: 62.17 u/L | ALBUMIN [2]: 3.95 G/DL | ALKALINE PHOSPHATASE [2]: 363.5 u/L | ASPARTATE AMINOTRANSFERASE [2]: 118 u/L | BLOOD UREA NITROGEN [2]: 14.5 mg/dL | CARBON DIOXIDE [2]: 22.83 mmol/L | CHOLESTEROL [2]: 66 mg/dL | CREATINE PHOSPHOKINASE [2]: 1308.83 u/L | CREATININE [2]: 0.22 mg/dL | GLUCOSE [2]: 187.5 mg/dL | LACTATE DEHYDROGENASE [2]: 380.17 u/L | LIPASE [2]: 16.17 u/L | PHOSPHORUS [2]: 14.27 mg/dL | POTASSIUM [2]: 6.8 MEQ/L | TOTAL BILIRUBIN [2]: 0.2 mg/dL | TOTAL PROTEIN [2]: 5.68 G/DL | URIC ACID [2]: 2.87 mg/dL | ABSOLUTE BASOPHIL [3]: 0 CELLS/uL | ABSOLUTE EOSINOPHIL [3]: 80 CELLS/uL | ABSOLUTE LYMPHOCYTE [3]: 13301.33 CELLS/uL | ABSOLUTE MONOCYTE [3]: 180.83 CELLS/uL | ABSOLUTE SEGMENTED NEUTROPHIL [3]: 1187.83 CELLS/uL | BASOPHIL [3]: 0% | EOSINOPHIL [3]: 0.5% | ERYTHROCYTE COUNT [3]: 5.54 x10E6/uL | HEMATOCRIT [3]: 35.65% | HEMOGLOBIN [3]: 14.22 G/DL | LEUKOCYTE COUNT [3]: 14.75 x10E3/uL | LYMPHOCYTE [3]: 90.67% | MEAN CORPUSCULAR HEMOGLOBIN [3]: 25.65 pg | MEAN CORPUSCULAR HEMOGLOBIN CONCENTRATION [3]: 39.88 G/DL | MONOCYTE [3]: 1% | NEUTROPHIL [3]: 7.83% | NUCLEATED RED BLOOD CELLS [3]: 0.17 /100WBC | PLATELET COUNT [3]: 1285.33 x10E3/uL | ALANINE AMINOTRANSFERASE [4]: 51.67 u/L | ALKALINE PHOSPHATASE [4]: 391.5 u/L | ASPARTATE AMINOTRANSFERASE [4]: 99.5 u/L | BLOOD UREA NITROGEN [4]: 15.5 mg/dL | CARBON DIOXIDE [4]: 28.33 mmol/L | CHOLESTEROL [4]: 67.83 mg/dL | CREATINE PHOSPHOKINASE [4]: 771.33 u/L | CREATININE [4]: 0.23 mg/dL | GLUCOSE [4]: 156.5 mg/dL | LACTATE DEHYDROGENASE [4]: 544.33 u/L | LIPASE [4]: 10.17 u/L | PHOSPHORUS [4]: 12.03 mg/dL | POTASSIUM [4]: 6.81 MEQ/L | TOTAL BILIRUBIN [4]: 0.22 mg/dL | TOTAL PROTEIN [4]: 6 G/DL | URIC ACID [4]: 2.18 mg/dL

LIPOPOLYSACCHARIDE E. COLI O55:B5
ABSOLUTE BASOPHIL [5]: 0 CELLS/uL | ABSOLUTE EOSINOPHIL [5]: 33.67 CELLS/uL | ABSOLUTE LYMPHOCYTE [5]: 12123.5 CELLS/uL | ABSOLUTE MONOCYTE [5]: 243.5 CELLS/uL | ABSOLUTE SEGMENTED NEUTROPHIL [5]: 1282.67 CELLS/uL | BASOPHIL [5]: 0% | EOSINOPHIL [5]: 0.33% | ERYTHROCYTE COUNT [5]: 5.18 x10E6/uL | HEMATOCRIT [5]: 32.63% | LEUKOCYTE COUNT [5]: 13.68 x10E3/uL | LYMPHOCYTE [5]: 88.67% | MEAN CORPUSCULAR HEMOGLOBIN [5]: 24.98 pg | NEUTROPHIL [5]: 9.17% | NUCLEATED RED BLOOD CELLS [5]: 0.17 /100WBC | PLATELET COUNT [5]: 1114.5 x10E3/uL | ALANINE AMINOTRANSFERASE [6]: 46.17 u/L | ALKALINE PHOSPHATASE [6]: 374.67 u/L | ASPARTATE AMINOTRANSFERASE [6]: 89.33 u/L | BLOOD UREA NITROGEN [6]: 14.83 mg/dL | CARBON DIOXIDE [6]: 25.67 mmol/L | CHOLESTEROL [6]: 63.5 mg/dL | CREATINE PHOSPHOKINASE [6]: 494.67 u/L | CREATININE [6]: 0.17 mg/dL | LACTATE DEHYDROGENASE [6]: 269.33 u/L | PHOSPHORUS [6]: 11.27 mg/dL | POTASSIUM [6]: 5.85 MEQ/L | TOTAL BILIRUBIN [6]: 0.18 mg/dL | TOTAL PROTEIN [6]: 5.87 G/DL | URIC ACID [6]: 1.28 mg/dL | ABSOLUTE BASOPHIL [7]: 0 CELLS/uL | ABSOLUTE EOSINOPHIL [7]: 24.67 CELLS/uL | ABSOLUTE LYMPHOCYTE [7]: 11832.83 CELLS/uL | ABSOLUTE MONOCYTE [7]: 279.67 CELLS/uL | ABSOLUTE SEGMENTED NEUTROPHIL [7]: 1446.17 CELLS/uL | BASOPHIL [7]: 0% | EOSINOPHIL [7]: 0.17% | ERYTHROCYTE COUNT [7]: 5.61 x10E6/uL | HEMATOCRIT [7]: 35.02% | HEMOGLOBIN [7]: 13.82 G/DL | LEUKOCYTE COUNT [7]: 13.58 x10E3/uL | LYMPHOCYTE [7]: 87.67% | MEAN CORPUSCULAR HEMOGLOBIN [7]: 24.68 pg | MONOCYTE [7]: 2% | NEUTROPHIL [7]: 10.17% | NUCLEATED RED BLOOD CELLS [7]: 0 /100WBC | PLATELET COUNT [7]: 1178.17 x10E3/uL | ALANINE AMINOTRANSFERASE [8]: 52.83 u/L | ALKALINE PHOSPHATASE [8]: 370 u/L | ASPARTATE AMINOTRANSFERASE [8]: 100.5 u/L | BLOOD UREA NITROGEN [8]: 15.17 mg/dL | CARBON DIOXIDE [8]: 28.83 mmol/L | CHOLESTEROL [8]: 69.5 mg/dL | CREATINE PHOSPHOKINASE [8]: 488.67 u/L | CREATININE [8]: 0.23 mg/dL | GLUCOSE [8]: 165 mg/dL | LACTATE DEHYDROGENASE [8]: 502.17 u/L | LIPASE [8]: 11 u/L | PHOSPHORUS [8]: 11.7 mg/dL | POTASSIUM [8]: 5.85 MEQ/L | TOTAL BILIRUBIN [8]: 0.18 mg/dL
